Data: ChEMBL document CHEMBL1201862, “PubChem BioAssay data set” (2004)
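Cells were grown in 96-well plates and exposed to each compound for 48 hours at five concentrations; endpoints were interpolated linearly between bracketing concentrations, or set to the highest concentration if not reached. Here, GI50 denotes the concentration required for 50% inhibition of growth.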 Calls of active or inactive are those of the source. Cut-off read from the data, not from the text of the source: active = GI50 up to about 1.1 µM and inactive = higher.

Tests used:
Assay in all cases: inhibition of tumour cell growth, NCI panel, 48 h
M14 = system: M14
HCC 2998 = system: HCC 2998
ACHN = system: ACHN
HL-60 = system: HL-60
RPMI-8226 = system: RPMI-8226
UO-31 = system: UO-31
NCI-H522 = system: NCI-H522
NCI-H226 = system: NCI-H226
COLO 205 = system: COLO 205
Malme-3M = system: Malme-3M
SF-295 = system: SF-295
SR = system: SR
MOLT-4 = system: MOLT-4
EKVX = system: EKVX
SK-MEL-2 = system: SK-MEL-2
OVCAR-5 = system: OVCAR-5
OVCAR-4 = system: OVCAR-4
U-251 = system: U-251

Measured: GI50

COc1cc(C2SC(=N)Nc3c2c(C)nn3C(=O)Cc2ccccc2)ccc1O (stereo not given)
inactive: M14 > 100 µM | HCC 2998 > 100 µM | ACHN > 100 µM | HL-60 > 100 µM | RPMI-8226 > 100 µM | UO-31 > 100 µM | NCI-H522 > 100 µM | NCI-H226 > 100 µM | COLO 205 > 100 µM | Malme-3M > 100 µM | SF-295 > 100 µM | SR > 100 µM | MOLT-4 > 100 µM | EKVX > 100 µM

CC(=O)NN/C=N/C(C#N)=C(\N)C#N
inactive: M14 > 100 µM | HCC 2998 > 100 µM | ACHN > 100 µM | HL-60 > 100 µM | RPMI-8226 > 100 µM | UO-31 > 100 µM | NCI-H522 > 100 µM | SK-MEL-2 > 100 µM | NCI-H226 > 100 µM | OVCAR-5 > 100 µM | COLO 205 > 100 µM | Malme-3M > 100 µM | SF-295 > 100 µM | SR > 100 µM | MOLT-4 > 100 µM | OVCAR-4 > 100 µM | U-251 > 100 µM | EKVX > 100 µM

COc1cccc(C23CCCC(C2)N(C)CC3OC(=O)c2ccccc2)c1OC (stereo not given)
inactive: M14 15.9 µM | HCC 2998 22.9 µM | ACHN 32.7 µM | HL-60 10.2 µM | RPMI-8226 18.6 µM | UO-31 > 100 µM | NCI-H522 22.6 µM | SK-MEL-2 31.8 µM | OVCAR-5 26.4 µM | COLO 205 14.1 µM | Malme-3M 16.6 µM | SF-295 19.4 µM | SR 16.2 µM | MOLT-4 18.4 µM | OVCAR-4 24 µM | U-251 28.3 µM | EKVX 24.5 µM

Nc1ncnc2c1nc(O)n2-c1ccccc1
inactive: M14 > 100 µM | HCC 2998 > 100 µM | ACHN > 100 µM | HL-60 > 100 µM | RPMI-8226 > 100 µM | UO-31 57.7 µM | SK-MEL-2 > 100 µM | OVCAR-5 > 100 µM | COLO 205 > 100 µM | Malme-3M > 100 µM | SF-295 > 100 µM | SR > 100 µM | MOLT-4 > 100 µM | OVCAR-4 > 100 µM | EKVX 93.8 µM

Cc1c2n(c3ccccc13)S(=O)(=O)c1ccccc1-2
inactive: M14 27.4 µM | HCC 2998 > 100 µM | ACHN 18.1 µM | HL-60 > 100 µM | RPMI-8226 > 100 µM | UO-31 18.4 µM | NCI-H522 34.2 µM | NCI-H226 77.3 µM | OVCAR-5 88.3 µM | COLO 205 > 100 µM | Malme-3M 33.1 µM | SF-295 17.3 µM | SR > 100 µM | MOLT-4 > 100 µM | OVCAR-4 17.2 µM | U-251 18.4 µM | EKVX 6.37 µM

Cc1cccc(C)c1NC(=O)/C=C/c1ccccc1
inactive: M14 > 100 µM | HCC 2998 > 100 µM | ACHN 15.4 µM | HL-60 > 100 µM | RPMI-8226 > 100 µM | NCI-H522 18.8 µM | SK-MEL-2 > 100 µM | NCI-H226 20.3 µM | OVCAR-5 > 100 µM | COLO 205 > 100 µM | Malme-3M 51.2 µM | SF-295 88.5 µM | SR > 100 µM | MOLT-4 > 100 µM | OVCAR-4 > 100 µM | U-251 > 100 µM | EKVX 67 µM

COc1ccc(-c2oc3c(OC)c(OC)c(OC)c(OC)c3c(=O)c2OC)cc1OC [3,5,6,7,8,3',4'-HEPTAMETHOXYFLAVONE]
inactive: M14 41.4 µM | HCC 2998 63.8 µM | ACHN 33.5 µM | HL-60 14.1 µM | RPMI-8226 12.4 µM | UO-31 23.6 µM | NCI-H522 19.4 µM | SK-MEL-2 29.6 µM | NCI-H226 48.9 µM | OVCAR-5 > 100 µM | COLO 205 65.6 µM | Malme-3M 28 µM | SF-295 32 µM | SR 19.1 µM | MOLT-4 22.4 µM | OVCAR-4 47.2 µM | U-251 51.5 µM | EKVX 55.7 µM

CCN(CC)P1(=S)Oc2ccc3ccccc3c2-c2c(ccc3ccccc23)O1
inactive: M14 > 100 µM | HCC 2998 77.4 µM | ACHN 67.3 µM | HL-60 > 100 µM | RPMI-8226 > 100 µM | UO-31 > 100 µM | NCI-H522 60.1 µM | SK-MEL-2 > 100 µM | NCI-H226 > 100 µM | OVCAR-5 > 100 µM | COLO 205 > 100 µM | Malme-3M 72.8 µM | SF-295 > 100 µM | SR 27.4 µM | MOLT-4 > 100 µM | OVCAR-4 99.3 µM | U-251 > 100 µM | EKVX > 100 µM

O=C(/C=C\c1ccccc1)Oc1ccc(/C=C2\CCC/C(=C\c3ccc(OC(=O)/C=C\c4ccccc4)cc3)C2=O)cc1
inactive: M14 > 100 µM | HCC 2998 > 100 µM | ACHN > 100 µM | HL-60 > 100 µM | RPMI-8226 > 100 µM | UO-31 > 100 µM | NCI-H522 > 100 µM | SK-MEL-2 > 100 µM | OVCAR-5 > 100 µM | COLO 205 > 100 µM | SF-295 > 100 µM | SR > 100 µM | MOLT-4 > 100 µM | OVCAR-4 > 100 µM | U-251 > 100 µM | EKVX > 100 µM
